These results are taken from ChEMBL document CHEMBL1687855, “Nardosinane sesquiterpenoids from the Formosan soft coral Lemnalia flava” (2011).

Molecules are shown by their SMILES. pEC50: −log10 of the molar value. The source made the active and inactive calls. The rule behind the calls is not given here.

One assay deals with Daoy. The assay can be described thus: Cytotoxicity against human DaOY cells. The class given is functional, cell-based.
Assay [1] relates to SH-SY5Y. The assay can be described thus: Neuroprotective activity against 1 hr compound pretreated human SH-SY5Y cells assessed as reduction in 6-OHDA induced damage at 10^-4 uM by MTT assay. The arrangement: scale not given: the % may be the effect or the level left. The class given is functional. For orientation: Tetrazolium dyes change colour on reduction, which living cells bring about.

The test system of the next assay is MCF7. Put plainly: Cytotoxicity against human MCF7 cells. The class given is functional, cell-based.
For another assay, the system named is CCRF-CEM. The assay can be described thus: Cytotoxicity against human CCRF-CEM cells. The class given is functional, cell-based.
Assay [2] deals with SH-SY5Y. Put plainly: Neuroprotective activity against 1 hr compound pretreated human SH-SY5Y cells assessed as reduction in 6-OHDA induced damage at 10^-2 uM by MTT assay. It counts as functional. More on the design: scale not given: the % may be the effect or the level left.
The next assay concerns P388D1. Put plainly: Cytotoxicity against […] cells. As to conditions: Mus musculus. It counts as functional, cell-based.
The subject of another assay is WiDr. The assay can be described thus: Cytotoxicity against human WiDr cells. The class given is functional, cell-based.
The subject of the next assay is HL-60. Put plainly: Cytotoxicity against human HL60 cells. The class given is functional, cell-based.
Assay [3] has as its system SH-SY5Y. Put plainly: Neuroprotective activity against 1 hr compound pretreated human SH-SY5Y cells assessed as reduction in 6-OHDA induced damage at 10^-3 uM by MTT assay. The arrangement: scale not given: the % may be the effect or the level left. It counts as functional.
Assay [4] relates to SH-SY5Y. Put plainly: Neuroprotective activity against 1 hr compound pretreated human SH-SY5Y cells assessed as reduction in 6-OHDA induced damage at 1 uM by MTT assay. It counts as functional. The arrangement: scale not given: the % may be the effect or the level left.
The subject of assay [5] is SH-SY5Y. Put plainly: Neuroprotective activity against 1 hr compound pretreated human SH-SY5Y cells assessed as reduction in 6-OHDA induced damage at 10 uM by MTT assay. The arrangement: scale not given: the % may be the effect or the level left. It counts as functional.
The test system of a further assay is HEp-2. The assay can be described thus: Cytotoxicity against human Hep2 cells. The class given is functional, cell-based.
Assay [6] relates to SH-SY5Y. Put plainly: Neuroprotective activity against 1 hr compound pretreated human SH-SY5Y cells assessed as reduction in 6-OHDA induced damage at 10^-1 uM by MTT assay. It counts as functional. The arrangement: scale not given: the % may be the effect or the level left.
The next assay has as its system DLD-1. Put plainly: Cytotoxicity against human DLD1 cells. The class given is functional, cell-based.
For assay [7], the system named is RAW264.7. The assay can be described thus: Antiinflammatory activity in mouse RAW264.7 cells assessed as inhibition of LPS-induced up-regulation of pro-inflammatory protein COX-2 by Western blot analysis. The class given is functional.
Assay [8] has as its system RAW264.7. The assay can be described thus: Antiinflammatory activity in mouse RAW264.7 cells assessed as inhibition of LPS-induced up-regulation of pro-inflammatory protein iNOS by Western blot analysis. The class given is functional. Background: A western blot detects proteins with antibodies after separation by electrophoresis.
Assay [9] concerns SH-SY5Y. The assay can be described thus: Neuroprotective activity against 1 hr compound pretreated human SH-SY5Y cells assessed as reduction in 6-OHDA induced damage at 10 '-4 to 10 uM by MTT assay. It counts as functional. More on the design: scale not given: the % may be the effect or the level left.
[10] abbreviates: read-out: ED50 (the source's name).

Consider `C[C@@H]1[C@@H](O)O[C@@]23C=CC[C@H](C)[C@@]2(C)[C@H]1C(=O)CC3` [FLAVALIN B], for which the result in the assay on Daoy, with MCF7, in the assay on CCRF-CEM, in the assay with P388D1, in the assay with WiDr and in the assay on HL-60 was inactive. The outcome in the assay with HEp-2 and in the assay with DLD-1 was inactive. The Activity with SH-SY5Y [1] is recorded as 29.6%; in the assay on SH-SY5Y [2] it was 30.2%; in the assay with SH-SY5Y [3], 32.6%; with SH-SY5Y [4] it was 21.3%; with SH-SY5Y [5] it was 30.1%; in the assay with SH-SY5Y [6] it was 24.3%.

As to `C[C@@H]1[C@@H]2O[C@H]3CC[C@@]4(C=CC[C@H](C)[C@@]4(C)[C@H]13)O2` [FLAVALIN A], the Activity entry with RAW264.7 [7] was “Dose-dependent effect”; in the assay with SH-SY5Y [1], 16.9%; in the assay on SH-SY5Y [2] it was 30.8%; with RAW264.7 [8] it was “Dose-dependent effect”; with SH-SY5Y [3], 5.84%; in the assay on SH-SY5Y [4], 35.1%. Besides, the Activity in the assay on SH-SY5Y [5] worked out at 20.9%; in the assay with SH-SY5Y [6], 25.3%. The pEC50 with RAW264.7 [7] (setting [10]) was 4.58; in the assay with RAW264.7 [8] (setting [10]), 4.69. In addition, the result in the assay with Daoy, in the assay on MCF7, in the assay with CCRF-CEM, in the assay with P388D1, in the assay on WiDr and with HL-60 was inactive. Further, the result in the assay with HEp-2 and in the assay on DLD-1 was inactive.

Turning to `CO[C@@H]1O[C@@]23C=CC[C@H](C)[C@@]2(C)[C@@H](C(=O)CC3)[C@@H]1C` [FLAVALIN D], the outcome in the assay with Daoy, in the assay on MCF7, with CCRF-CEM, with P388D1, in the assay on WiDr and with HL-60 was inactive. Moreover, the result in the assay with HEp-2 and in the assay on DLD-1 was inactive. Also, in the assay on SH-SY5Y [9], the Activity is recorded as <20%.

On to `CO[C@H]1O[C@@]23C=CC[C@H](C)[C@@]2(C)[C@@H](C(=O)CC3)[C@@H]1C` [FLAVALIN C], for which the result in the assay with Daoy, in the assay on MCF7, in the assay with CCRF-CEM, in the assay with P388D1, in the assay with WiDr and with HL-60 was inactive. The outcome with HEp-2 and in the assay with DLD-1 was inactive. Besides, the Activity with SH-SY5Y [9] is <20%.
